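48-hour exposure; five concentrations; linearly interpolated endpoints. GI50: concentration for 50% inhibition of growth. TGI denotes the concentration required for complete inhibition of growth.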
Key:
Assay in all cases: NCI tumour cell line growth inhibition, 48 h; in the data active means GI50 below about 0.43 µM; inactive means the rest
SK-MEL-28 melanoma = system: SK-MEL-28 melanoma
HOP-92 NSCLC = system: HOP-92 NSCLC
HT29 colon = system: HT29 colon
SK-OV-3 ovarian = system: SK-OV-3 ovarian
HCT-116 colon = system: HCT-116 colon
CAKI-1 renal = system: CAKI-1 renal
OVCAR-4 ovarian = system: OVCAR-4 ovarian
HCC-2998 colon = system: HCC-2998 colon
SF-295 CNS = system: SF-295 CNS
MDA-MB-231 breast = system: MDA-MB-231 breast

COc1cc(S(=O)(=O)Nc2ccc(C(=O)/C=C/c3ccc(O)cc3)cc2)ccc1F
> 100 µM: TGI (SK-MEL-28 melanoma) | TGI (HT29 colon) | TGI (SK-OV-3 ovarian) | TGI (HCT-116 colon) | TGI (CAKI-1 renal) | TGI (OVCAR-4 ovarian) | TGI (HCC-2998 colon) | TGI (SF-295 CNS)
inactive: GI50 (SK-MEL-28 melanoma) > 100 µM | GI50 (HOP-92 NSCLC) 1.55 µM | GI50 (HT29 colon) > 100 µM | GI50 (SK-OV-3 ovarian) > 100 µM | GI50 (HCT-116 colon) > 100 µM | GI50 (CAKI-1 renal) > 100 µM | GI50 (OVCAR-4 ovarian) > 100 µM | GI50 (HCC-2998 colon) > 100 µM | GI50 (SF-295 CNS) > 100 µM
27.5 µM: TGI (HOP-92 NSCLC)
active: GI50 (MDA-MB-231 breast) 0.0267 µM
9.12 µM: TGI (MDA-MB-231 breast)

Source: PubChem BioAssay (NCI)
